From publication PMC11508362, “Discovery of Novel Thiazole-Based SIRT2 Inhibitors as Anticancer Agents: Molecular Modeling, Chemical Synthesis and Biological Assays” (International Journal of Molecular Sciences, 2024)
Read-outs that look alike come from different tables or passages of the source. Blank lines part the entries; values can stand above or below the compound they belong to.

How the values were obtained:
SIRT6 [1] = biological target: T1, SIRT6 (Homo sapiens, UniProt Q8N6T7); assay: SIRT6 deacetylation reaction promoted by the SIRT6 activator MDL-800, recombinant protein; type: biochemical; settings: with SIRT6 activator MDL-800, SD always ≤10%; for inhibition at 150 µM: read-out: % Inhibition SIRT6 (Deacetylase); for % Inhibition SIRT6 (Deacetylase): 150 µM
T1 sequence (Q8N6T7 whole entry, species assumed): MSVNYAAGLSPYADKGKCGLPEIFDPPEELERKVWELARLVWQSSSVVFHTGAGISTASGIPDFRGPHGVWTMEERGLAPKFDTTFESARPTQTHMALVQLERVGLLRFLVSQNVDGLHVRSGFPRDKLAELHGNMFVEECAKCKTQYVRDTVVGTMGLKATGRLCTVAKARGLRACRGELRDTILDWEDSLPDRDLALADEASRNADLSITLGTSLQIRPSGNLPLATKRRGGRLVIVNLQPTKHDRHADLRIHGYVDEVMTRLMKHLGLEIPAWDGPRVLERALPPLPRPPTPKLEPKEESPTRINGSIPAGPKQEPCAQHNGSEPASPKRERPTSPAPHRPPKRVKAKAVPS
Protocol: (§1) Next, the selectivity of the compounds for SIRT2 against other sirtuins was also determined. The compounds were tested at the final concentration of 150 µM in the deacetylation reaction of SIRT1, SIRT3 and SIRT6, with this last one being promoted by the addition of the SIRT6 activator MDL-800 and also in the depalmitoylation reaction of SIRT6.

SIRT2 [2] = biological target: T2, SIRT2 (Homo sapiens, UniProt Q8IXJ6); assay: SIRT2 deacetylase activity, recombinant SIRT2 with acetylated peptide H3K9Ac and NAD+; settings: for inhibition at 150 µM: read-out: % Inhibition SIRT2 (at 150 μM)
T2 sequence (Q8IXJ6 1-389): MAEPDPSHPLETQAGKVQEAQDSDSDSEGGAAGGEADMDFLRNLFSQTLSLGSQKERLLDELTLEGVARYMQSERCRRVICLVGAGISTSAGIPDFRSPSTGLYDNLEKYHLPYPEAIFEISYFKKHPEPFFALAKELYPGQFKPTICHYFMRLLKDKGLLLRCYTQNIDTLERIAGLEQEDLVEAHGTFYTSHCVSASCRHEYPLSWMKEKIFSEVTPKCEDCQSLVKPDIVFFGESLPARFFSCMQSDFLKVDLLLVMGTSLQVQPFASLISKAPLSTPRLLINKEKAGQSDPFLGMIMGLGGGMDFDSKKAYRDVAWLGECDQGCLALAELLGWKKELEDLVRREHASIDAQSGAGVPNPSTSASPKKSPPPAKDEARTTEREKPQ
Protocol: The effect of urea derivatives on SIRT2 deacetylase activity was evaluated upon incubation of recombinant SIRT2 with an acetylated peptide (H3K9Ac, a peptide acetylated on Lys 9) and the co-substrate NAD^+.

SIRT6 [3] = biological target: T1, SIRT6; assay: SIRT6 depalmitoylation reaction (H3K9Palm), recombinant protein; type: biochemical; settings: 150 µM, SD always ≤10%
Protocol: as §1

SIRT1 = biological target: T3, SIRT1 (Homo sapiens, UniProt Q96EB6); assay: SIRT1 deacetylation reaction, recombinant protein; type: biochemical; settings: deacetylase activity, SD always ≤10%
T3 sequence (Q96EB6 1-747): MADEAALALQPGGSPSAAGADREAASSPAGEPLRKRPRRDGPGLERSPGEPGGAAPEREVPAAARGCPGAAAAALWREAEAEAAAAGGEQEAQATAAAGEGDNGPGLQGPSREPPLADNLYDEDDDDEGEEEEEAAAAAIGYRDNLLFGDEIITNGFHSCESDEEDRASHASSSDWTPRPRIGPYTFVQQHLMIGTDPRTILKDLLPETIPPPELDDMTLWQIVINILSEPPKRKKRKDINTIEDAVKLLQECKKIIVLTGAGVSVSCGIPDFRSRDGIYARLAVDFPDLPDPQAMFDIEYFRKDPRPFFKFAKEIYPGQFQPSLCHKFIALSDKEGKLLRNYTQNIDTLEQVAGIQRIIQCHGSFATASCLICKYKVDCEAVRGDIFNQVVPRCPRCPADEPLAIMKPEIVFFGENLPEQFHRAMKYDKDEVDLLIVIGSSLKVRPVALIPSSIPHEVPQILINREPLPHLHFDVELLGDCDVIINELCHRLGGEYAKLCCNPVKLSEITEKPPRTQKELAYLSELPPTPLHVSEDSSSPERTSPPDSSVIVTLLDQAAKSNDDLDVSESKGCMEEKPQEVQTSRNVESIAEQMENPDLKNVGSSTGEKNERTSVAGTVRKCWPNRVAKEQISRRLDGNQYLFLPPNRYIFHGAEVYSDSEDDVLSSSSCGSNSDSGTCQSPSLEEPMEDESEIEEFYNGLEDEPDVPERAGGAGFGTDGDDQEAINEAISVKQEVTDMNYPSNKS
Protocol: as §1

SIRT3 = biological target: T4, SIRT3 (Homo sapiens, UniProt Q9NTG7); assay: SIRT3 deacetylation reaction, recombinant protein; type: biochemical; settings: deacetylase activity, SD always ≤10%
T4 sequence (Q9NTG7 1-399): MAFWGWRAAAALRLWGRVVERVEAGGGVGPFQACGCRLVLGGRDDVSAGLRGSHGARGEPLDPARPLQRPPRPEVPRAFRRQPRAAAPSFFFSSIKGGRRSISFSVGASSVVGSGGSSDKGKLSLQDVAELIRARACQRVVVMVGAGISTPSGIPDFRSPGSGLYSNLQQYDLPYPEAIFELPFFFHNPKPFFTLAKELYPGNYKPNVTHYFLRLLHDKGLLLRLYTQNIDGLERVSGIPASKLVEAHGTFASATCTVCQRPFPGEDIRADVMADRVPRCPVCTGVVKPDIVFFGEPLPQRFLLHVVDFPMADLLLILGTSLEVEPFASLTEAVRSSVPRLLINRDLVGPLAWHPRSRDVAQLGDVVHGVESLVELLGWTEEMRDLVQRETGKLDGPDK
Protocol: as §1

SIRT2 [4] = biological target: T2, SIRT2; settings: cited from earlier work
[5] = system: acetylation of α-tubulin in SCC13 cells; assay: Western blot of α-tubulin acetylation (endogenous SIRT2 inhibition) in SCC13 cells; type: cell-based; settings: 5 μM, 48 h, Western blot normalized to total α-tubulin
Protocol: To confirm that the effect of 5a on cell viability was due to its ability to inhibit the endogenous SIRT2, Western blot analyses were performed to quantify the level of acetylation of α-tubulin, a direct substrate of SIRT2 enzymatic activity.
SCC13 cells (3 × 10^5) were seeded in 60 mm Petri dishes and left to adhere overnight. The day after, the medium was replaced with a medium containing 5a at a final concentration of 5 µM or the respective amount of DMSO vehicle. After 48 h, the medium was removed, and cells were washed with PBS and lysed by scraping with 100 µL of lysis buffer (25 mM Tris-HCl, pH 7.8; 2 mM DTT; 2 mM EDTA, 10% glycerol; 1% Triton® X-100). The lysate was clarified by centrifugation, and the protein concentration was measured using the Bradford assay. Twenty µg of proteins were loaded on a 10% polyacrylamide gel and then transferred to a nitrocellulose membrane. The membrane was saturated with 5% skim milk powder solution in TBS-Tween 0.05%. To determine the acetylation of alpha-tubulin, membranes were incubated with an anti-acetyl-alpha-tubulin antibody (#5335, Cell Signaling Technology, Danvers, MA, USA), whose signal was normalized on the total amount of alpha-tubulin (#2125, Cell Signaling Technology).

[6] = Table S1, ref [2] Schiedel et al., J. Med. Chem. 2016, read-out: IC50 of SIRT2 inhibition (Table S1)
[7] = Table S2, SIRT2 inhibition of SirReal2 analogues, read-out: IC50 (Table S2)
[8] = SirReal2 analogs, read-out: SIRT2 IC50

inhibition at 150 µM (SIRT6 [1]): 15% | IC50 (SIRT2 [2]): 108 ± 4 µM | inhibition at 150 µM (SIRT2 [2]): 100 ± 4% | % Inhibition SIRT6 (Depalmiotoylase) (SIRT6 [3]): ni | inhibition at 150 µM (SIRT1): 99% | inhibition at 150 µM (SIRT3): 23%
Structure (SMILES): Cc1sc(NC(=O)NCc2ccccc2)nc1-c1ccc(Br)cc1 [Compound 3d, 1-benzyl-3-(4-(4-bromophenyl)-5-methylthiazol-2-yl)urea]

Structure (SMILES): Cc1cc(C)nc(SCC(=O)Nc2nnc(Cc3cccc4ccccc34)s2)n1 [Compound 24]
IC50 (SIRT2 [4]; [6]): 1.9 µM | IC50 (SIRT2 [4]; [7]): 1.89 µM

inhibition at 150 µM (SIRT6 [1]): 42% | IC50 (SIRT2 [2]): 37 ± 2 µM | inhibition at 150 µM (SIRT2 [2]): 100 ± 5% | % Inhibition SIRT6 (Depalmiotoylase) (SIRT6 [3]): ni | inhibition at 150 µM (SIRT1): 86% | inhibition at 150 µM (SIRT3): 6%
Structure (SMILES): CC(=O)c1cccc(NC(=O)Nc2nc(-c3ccc(Br)cc3)c(C)s2)c1 [Compound 3a, 1-(3-acetylphenyl)-3-(4-(4-bromophenyl)-5-methylthiazol-2-yl)urea]

Structure (SMILES): CCCc1cc(O)nc(SCC(=O)Nc2ncc(Cc3cccc4ccccc34)s2)n1 [Compound 20]
IC50 (SIRT2 [4]; [6]): 127 µM | IC50 (SIRT2 [4]; [7]): 127 µM

Structure (SMILES): CCOC(=O)c1sc(N)nc1-c1ccc(Br)cc1 [Compound 4]
IC50 (SIRT2 [4]; [6]): 3.4 µM

% Inhibition SIRT6 (Deacetylase) (SIRT6 [1]): ni | inhibition at 150 µM (SIRT2 [2]): 93 ± 4% | % Inhibition SIRT6 (Depalmiotoylase) (SIRT6 [3]): ni | inhibition at 150 µM (SIRT1): 98% | inhibition at 150 µM (SIRT3): 14%
Structure (SMILES): COc1cccc(NC(=O)Nc2nc(-c3ccc(Br)cc3)c(C)s2)c1 [Compound 3b, 1-(4-(4-bromophenyl)-5-methylthiazol-2-yl)-3-(3-methoxyphenyl)urea]

Structure (SMILES): O=C(CSc1ncccn1)Nc1ncc(Cc2cccc3ccccc23)s1 [Compound 16]
IC50 (SIRT2 [4]; [6]): 2.3 µM | IC50 (SIRT2 [4]; [7]): 2.34 µM

Structure (SMILES): Cc1cc(C)nc(SCC(=O)Nc2nnc(Cc3ccc(Cl)cc3)s2)n1 [Compound 22]
IC50 (SIRT2 [4]; [6]): 30.9 µM

Structure (SMILES): Cc1cc(C)nc(SCC(=O)Nc2ncc(C(=O)Nc3cccc4ccccc34)s2)n1 [Compound 9]
IC50 (SIRT2 [4]; [6]): 33 µM

Structure (SMILES): Cc1cc(C)nc(SC(C)C(=O)Nc2ncc(Cc3cccc4ccccc34)s2)n1 (centres unmarked) [Compound 11]
IC50 (SIRT2 [4]; [6]): 9.8 µM | IC50 (SIRT2 [4]; [7]): 9.77 µM

Structure (SMILES): Cc1cc(C)nc(SCC(=O)Nc2ncc(Cc3cccc4ccc(Cl)cc34)s2)n1 [Compound 10]
IC50 (SIRT2 [4]; [6]): 0.2 µM | IC50 (SIRT2 [4]; [7]): 0.18 µM

inhibition at 150 µM (SIRT6 [1]): 7% | IC50 (SIRT2 [2]): 26 ± 4 µM | inhibition at 150 µM (SIRT2 [2]): 96 ± 6% | % Inhibition SIRT6 (Depalmiotoylase) (SIRT6 [3]): ni | inhibition at 150 µM (SIRT1): 100% | inhibition at 150 µM (SIRT3): 20%
Structure (SMILES): CSc1cccc(NC(=O)Nc2nc(-c3ccc(Br)cc3)c(C)s2)c1 [Compound 3c, 1-(4-(4-bromophenyl)-5-methylthiazol-2-yl)-3-(3-(methylthio)phenyl)urea]

Structure (SMILES): N#C/C(=C\c1ccc(-c2cc(Cl)ccc2Cl)o1)C(=O)Nc1cccc2ncccc12 [AGK2, reference compound]
level of α-tubulin acetylation vs control cells [5]: increased levels of alpha-tubulin acetylation

Structure (SMILES): Cc1cc(C)nc(SCC(=O)Nc2ncc(Cc3ccc(-c4ccccc4)cc3)s2)n1 [Compound 6]
IC50 (SIRT2 [4]; [6]): 164 µM

Structure (SMILES): O=C(CSc1cccc(O)c1)Nc1ncc(Cc2cccc3ccccc23)s1 [Compound 7]
IC50 (SIRT2 [4]; [8]): 143 to 207 µM | IC50 (SIRT2 [4]; [6]): 143 µM

Structure (SMILES): Cc1sc(N)nc1-c1ccc(Br)cc1 [Compound 2]
IC50 (SIRT2 [4]; [6]): 16.8 µM

Structure (SMILES): Cc1cc(C)nc(SCC(=O)Nc2nnc(Cc3ccc(Br)cc3)s2)n1 [Compound 23]
IC50 (SIRT2 [4]; [6]): 168 µM

Structure (SMILES): CC(Br)C(=O)c1ccc(Br)cc1 (centres unmarked) [Compound 1]
IC50 (SIRT2 [4]; read-out: IC50 (Table S2), Table S2, SIRT2 inhibition of SirReal2 analogues): 3.75 µM | IC50 (SIRT2 [4]; read-out: IC50 of SIRT2 inhibition (Table S1), Table S1, ref [2] Schiedel et al., J. Med. Chem. 2016): 3.8 µM

Structure (SMILES): Cc1cc(C)nc(SCC(=O)Nc2ncc(Cc3c(C)ccc4ccccc34)s2)n1 [Compound 13]
IC50 (SIRT2 [4]; [6]): 0.3 µM | IC50 (SIRT2 [4]; [7]): 0.31 µM

% Inhibition SIRT6 (Deacetylase) (SIRT6 [1]): ni | inhibition at 150 µM (SIRT2 [2]): 93 ± 4% | % Inhibition SIRT6 (Depalmiotoylase) (SIRT6 [3]): ni | inhibition at 150 µM (SIRT1): 92% | inhibition at 150 µM (SIRT3): 24%
Structure (SMILES): CCOC(=O)c1sc(NC(=O)NCc2ccccc2)nc1-c1ccc(Br)cc1 [Compound 5d, Ethyl 2-(3-benzylureido)-4-(4-bromophenyl)thiazole-5-carboxylate]

Structure (SMILES): Cc1cc(C)nc(SCC(=O)Nc2ncc(Cc3cccc4ccc(Br)cc34)s2)n1 [Compound 14]
IC50 (SIRT2 [4]; [8]): 0.21 µM | IC50 (SIRT2 [4]; [6]): 0.2 µM

Structure (SMILES): CCOc1cccc(Cc2cnc(NC(=O)CSc3nc(C)cc(C)n3)s2)c1 [Compound 5]
IC50 (SIRT2 [4]; [6]): 1.3 µM | IC50 (SIRT2 [4]; [7]): 1.33 µM

Structure (SMILES): Cc1nc(SCC(=O)Nc2ncc(Cc3cccc4ccccc34)s2)nc(C)c1C [Compound 18]
IC50 (SIRT2 [4]; [6]): 15 µM | IC50 (SIRT2 [4]; [7]): 15 µM

Structure (SMILES): CCc1cc(CC)nc(SCC(=O)Nc2ncc(Cc3cccc4ccccc34)s2)n1 [Compound 17]
IC50 (SIRT2 [4]; [6]): 45.6 µM

Structure (SMILES): Cc1cc(C)nc(SCC(=O)Nc2nnc(C(F)(F)F)s2)n1 [Compound 21]
IC50 (SIRT2 [4]; [8]): 503 µM

Structure (SMILES): Cc1cc(C)nc(SC(C)C(=O)Nc2ncc(Cc3cccc4ccccc34)s2)n1 (centres unmarked) [Compound 12]
IC50 (SIRT2 [4]; [6]): 0.3 µM | IC50 (SIRT2 [4]; [7]): 0.26 µM

Structure (SMILES): Cc1cc(C)cc(SCC(=O)Nc2ncc(Cc3cccc4ccccc34)s2)c1 [Compound 8]
IC50 (SIRT2 [4]; [8]): 143 to 207 µM | IC50 (SIRT2 [4]; [6]): 207 µM

Structure (SMILES): CCOc1ccc2nc(NC(=O)CSc3nc(C)cc(C)n3)sc2c1 [Compound 25]
IC50 (SIRT2 [4]; [6]): 207 µM | IC50 (SIRT2 [4]; [7]): 207 µM
